Assay results: article doi:10.1101/2025.07.24.666388, “Small Molecule Activators of Protein Phosphatase 2A Exert Global Stabilising Effects on the Scaffold PR65” (bioRxiv, 2025)

Molecular target: T1, PR65 (PP2A scaffold subunit A) (Homo sapiens, UniProt P30153)
T1 construct: gene PPP2R1A; WT PR65, 15 HEAT repeats (GST tag cleaved); ybbR-tagged PR65 for optical tweezers
Assay: fluorescence polarisation (PR65 titrated into fluorescent ATUX-8385); also nanoDSF shift and optical tweezers
Assay type: binding

T1 sequence (P30153 2-589): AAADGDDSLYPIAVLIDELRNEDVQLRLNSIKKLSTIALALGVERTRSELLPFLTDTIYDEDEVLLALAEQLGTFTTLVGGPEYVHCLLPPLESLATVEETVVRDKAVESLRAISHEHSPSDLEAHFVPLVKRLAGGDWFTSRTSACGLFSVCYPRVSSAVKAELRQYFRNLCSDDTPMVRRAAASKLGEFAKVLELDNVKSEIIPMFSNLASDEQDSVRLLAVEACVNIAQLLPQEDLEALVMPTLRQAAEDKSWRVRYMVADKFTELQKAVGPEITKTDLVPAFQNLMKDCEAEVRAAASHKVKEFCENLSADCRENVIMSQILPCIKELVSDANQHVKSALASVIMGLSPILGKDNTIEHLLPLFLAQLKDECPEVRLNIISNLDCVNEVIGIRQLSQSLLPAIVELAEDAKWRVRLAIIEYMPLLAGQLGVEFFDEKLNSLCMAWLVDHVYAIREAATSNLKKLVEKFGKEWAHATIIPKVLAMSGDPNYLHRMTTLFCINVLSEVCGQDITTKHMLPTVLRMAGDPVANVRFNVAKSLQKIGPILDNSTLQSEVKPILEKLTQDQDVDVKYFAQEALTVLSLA

SMILES: O=S(=O)(NC1CNCC(n2c3ccc(F)cc3c3cc(F)ccc32)C1O)c1ccc(OC(F)(F)F)cc1 (stereo not shown) [ATUX-8385]
- Kd: 4.7 ± 1.1 µM
